Six molecules from ChEMBL document CHEMBL1201862, “PubChem BioAssay data set” (2004) can be followed below.

Common to all, as to experiment: DTP human tumour cell line panel, 48 h
Assay [1] concerns BT-549.
Assay [2] deals with CAKI-1.
Assay [3] deals with CCRF-CEM.
In assay [4] the test system is DU-145.
The subject of assay [5] is EKVX.
For assay [6], the system named is HCC 2998.
The subject of assay [7] is HL-60.
Assay [8] concerns HT-29.
The subject of assay [9] is M14.
For assay [10], the system named is NCI-H226.
Assay [11] relates to OVCAR-4.
The subject of assay [12] is RXF 393.
The subject of assay [13] is SF-295.
The test system of assay [14] is SF-539.
For assay [15], the system named is SK-MEL-28.
In assay [16] the test system is SK-MEL-2.
Assay [17] has as its system SK-OV-3.
The test system of assay [18] is SN12C.
Assay [19] relates to SNB-19.
Assay [20] concerns UACC-62.

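Assay format: 96-well plates, 48-hour exposure. GI50: concentration for 50% inhibition of growth.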 Activity calls are given as the source filed them. No stated cut-off is given here; in the data, active = GI50 up to about 1.1 µM and inactive = higher.

Usually GI50 stands for the concentration at which growth is held to half of that of the control. As for `Nc1nc(SC/C=C/c2ccccc2)c2[nH]cnc2n1`, the GI50 in [1] was 28.2 µM (inactive); in assay [2] it was 38.7 µM (inactive); in assay [3] it was 54.2 µM (inactive); in assay [4] it was 94.2 µM (inactive); in assay [5] it was > 100 µM (inactive); in [6] it was > 100 µM (inactive). Also, the GI50 in assay [7] is 54.7 µM (inactive); in assay [8], > 100 µM (inactive); in assay [9] it was 71.8 µM (inactive); in assay [10] it was 35.2 µM (inactive); in [11], > 100 µM (inactive); in assay [12], 51.5 µM (inactive). Besides, the GI50 in assay [13] is > 100 µM (inactive); in assay [14], > 100 µM (inactive); in assay [15], > 100 µM (inactive); in assay [16] it was 91 µM (inactive); in assay [17], > 100 µM (inactive); in [18] it was > 100 µM (inactive). For the same molecule, the GI50 in assay [19] and in [20] was > 100 µM (inactive) throughout.

As to `O=C1/C(=C/c2ccc(F)cc2)CNC/C1=C\c1ccc(F)cc1`, the GI50 was 1.01 µM (active) in assay [1]; 1.12 µM (inactive) in assay [2]; 0.445 µM (active) in assay [3]; 1.75 µM (inactive) in assay [4]; 1.94 µM (inactive) in [5]; 0.214 µM (active) in assay [6]. For the same molecule, the GI50 in assay [7] is 0.383 µM (active); in assay [8], 0.664 µM (active); in [9] it was 1.99 µM (inactive); in assay [10], 2.82 µM (inactive); in assay [11], 2.09 µM (inactive); in assay [12], 1.82 µM (inactive). The GI50 in [13] was 2.09 µM (inactive); in assay [14], 0.865 µM (active); in assay [15], 1.05 µM (active); in assay [16] it was 12 µM (inactive); in assay [17], 6.92 µM (inactive); in [18], 2.14 µM (inactive). Further, the results for the GI50 in [19] and in assay [20] were 1.59 µM (inactive) and 2.32 µM (inactive), respectively.

As for `Cc1c2cnccc2c(C)c2c1[nH]c1ccc(O)cc12`, the GI50 in assay [1] was 6.01 µM (inactive); in assay [2], 1.43 µM (inactive); in [3], 0.74 µM (active); in assay [4], 1.64 µM (inactive); in assay [5] it was 2.88 µM (inactive); in assay [6], 1.57 µM (inactive). Moreover, the concentration for 50% growth inhibition (GI50) in [7] is 1.05 µM (active); in assay [8], 1.51 µM (inactive); in assay [9], 1.57 µM (inactive); in [10], 0.328 µM (active); in assay [11], 2.33 µM (inactive); in assay [12], 1.53 µM (inactive). The concentration for 50% growth inhibition (GI50) is 1.06 µM (active) in [13]; 1.07 µM (active) in assay [14]; 3.01 µM (inactive) in assay [15]; 6.25 µM (inactive) in assay [16]; 6.58 µM (inactive) in [17]; 1.12 µM (inactive) in [18]. The GI50 in assay [19] is 3.21 µM (inactive); in assay [20], 7.76 µM (inactive).

Take `CC(=O)NC1c2ccccc2C(C)(C)C12CCC1(CC2)OCCO1` (stereo not given): the GI50 in [1], in [2], in [3], in assay [4], in assay [5] and in assay [6] was > 100 µM (inactive) each time. The GI50 in assay [7] is > 100 µM (inactive); in [8], > 100 µM (inactive); in [9] it was > 100 µM (inactive); in [10] it was > 100 µM (inactive); in assay [11], > 100 µM (inactive); in [12], 37.9 µM (inactive). The GI50 was > 100 µM (inactive) in assay [13]; > 100 µM (inactive) in [14]; > 100 µM (inactive) in assay [15]; > 100 µM (inactive) in assay [16]; > 10 µM (inactive) in assay [17]; > 10 µM (inactive) in assay [18]. Moreover, the GI50 in assay [19] and in [20] was > 100 µM (inactive) in each case.

For `COCC(=O)[C@]1(O)Cc2c(O)c3c(c(O)c2[C@@H](OC2CC(N)C(O)C(C)O2)C1)C(=O)c1c(OC)cccc1C3=O` (stereo not given in full), the GI50 is 0.161 µM (active) in assay [1]; 0.0628 µM (active) in [2]; 0.0153 µM (active) in [3]; 0.0991 µM (active) in assay [4]; 0.455 µM (active) in assay [5]; 0.14 µM (active) in assay [6]. The concentration for 50% growth inhibition (GI50) was 0.0188 µM (active) in [7]; 0.0192 µM (active) in [8]; 0.0927 µM (active) in assay [9]; 0.0401 µM (active) in assay [10]; 0.0826 µM (active) in assay [11]; 0.0834 µM (active) in assay [12]. In addition, the concentration for 50% growth inhibition (GI50) was 0.0296 µM (active) in assay [13]; 0.043 µM (active) in [14]; 0.0935 µM (active) in assay [15]; 0.121 µM (active) in assay [16]; 0.254 µM (active) in assay [17]; 0.0285 µM (active) in [18]. Also, the GI50 in assay [19] is 0.0889 µM (active); in assay [20], 0.0545 µM (active).

Turning to `CC(C)=CC(Cc1ccccc1)S(=O)(=O)c1nc2ccccc2s1` (stereo not given), the GI50 is 14.6 µM (inactive) in [1]; 4.05 µM (inactive) in [2]; 2.37 µM (inactive) in assay [3]; 17.7 µM (inactive) in [4]; 19.6 µM (inactive) in [5]; 19.2 µM (inactive) in [6]. The GI50 was 2.84 µM (inactive) in [7]; 19.3 µM (inactive) in [8]; 12.5 µM (inactive) in assay [9]; 13.3 µM (inactive) in assay [10]; 15.9 µM (inactive) in assay [11]; 19.7 µM (inactive) in assay [12]. Also, the GI50 in assay [13] was 26.6 µM (inactive); in assay [14], 16.2 µM (inactive); in assay [15], 16.1 µM (inactive); in assay [16] it was 13.1 µM (inactive); in assay [17], 22.4 µM (inactive); in assay [18], 12 µM (inactive). For the same molecule, the GI50 in assay [19] was 17.4 µM (inactive); in [20], 17.2 µM (inactive).
